From publication PMC4347883, “Evaluation of a Triple-Helical Peptide with Quenched Fluorophores for Optical Imaging of MMP-2 and MMP-9 Proteolytic Activity” (Molecules, 2014)
“Also recorded” adds a separate entry of the source.

Legend:
human-MMP-9 = target: T1, human-MMP-9 (Homo sapiens, UniProt P14780); details: fTHP comparison; cited from earlier work
T1 construct: purchased Enzo Life Sciences
Description: (§1) Table 1 Enzyme kinetic parameters for gelatinase mediated hydrolysis of 5FAM-THPs. | column: KM (μM); kcat (s^−1); kcat/KM (M^−1 s^−1)

human-MMP-2 = target: T2, human-MMP-2 (Homo sapiens, UniProt P08253); details: fTHP comparison; cited from earlier work
T2 construct: purchased Enzo Life Sciences
T2 sequence (P08253 110-660): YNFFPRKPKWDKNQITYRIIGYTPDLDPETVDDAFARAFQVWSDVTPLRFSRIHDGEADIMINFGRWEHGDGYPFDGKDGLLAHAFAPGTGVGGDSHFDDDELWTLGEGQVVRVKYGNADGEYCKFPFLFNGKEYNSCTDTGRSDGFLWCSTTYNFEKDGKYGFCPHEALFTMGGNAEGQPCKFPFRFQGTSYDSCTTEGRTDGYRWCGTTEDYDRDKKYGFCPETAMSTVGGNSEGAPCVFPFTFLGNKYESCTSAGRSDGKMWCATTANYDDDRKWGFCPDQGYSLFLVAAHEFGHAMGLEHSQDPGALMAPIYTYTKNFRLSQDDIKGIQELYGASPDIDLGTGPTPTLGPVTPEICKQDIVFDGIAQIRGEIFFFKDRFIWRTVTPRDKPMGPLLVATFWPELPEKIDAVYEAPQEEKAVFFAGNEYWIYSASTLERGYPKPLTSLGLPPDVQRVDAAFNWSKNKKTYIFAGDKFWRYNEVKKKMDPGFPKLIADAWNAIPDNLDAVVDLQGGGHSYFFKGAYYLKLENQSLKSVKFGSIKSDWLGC
Description: as §1

MMP-2 = MMP-2 inhibition by SB-3CT; assay type: biochemical; details: at SB-3CT 72-fold Ki (1 µM)
[1] = system: gelatinase positive HT-1080 human fibrosarcoma cells; test: Confocal fluorescence microscopy of 5FAM6-THP hydrolysis in HT-1080 cells; assay type: cell-based; details: SB-3CT 1 µM pre-incubated 30 min, then 5FAM6-THP 1 µM, 1 h, mean of n = 10 cells
Description: Two image fields are shown per condition.

MMP-7 = details: cited from earlier work

T1 sequence (P14780 107-707 limits assumed): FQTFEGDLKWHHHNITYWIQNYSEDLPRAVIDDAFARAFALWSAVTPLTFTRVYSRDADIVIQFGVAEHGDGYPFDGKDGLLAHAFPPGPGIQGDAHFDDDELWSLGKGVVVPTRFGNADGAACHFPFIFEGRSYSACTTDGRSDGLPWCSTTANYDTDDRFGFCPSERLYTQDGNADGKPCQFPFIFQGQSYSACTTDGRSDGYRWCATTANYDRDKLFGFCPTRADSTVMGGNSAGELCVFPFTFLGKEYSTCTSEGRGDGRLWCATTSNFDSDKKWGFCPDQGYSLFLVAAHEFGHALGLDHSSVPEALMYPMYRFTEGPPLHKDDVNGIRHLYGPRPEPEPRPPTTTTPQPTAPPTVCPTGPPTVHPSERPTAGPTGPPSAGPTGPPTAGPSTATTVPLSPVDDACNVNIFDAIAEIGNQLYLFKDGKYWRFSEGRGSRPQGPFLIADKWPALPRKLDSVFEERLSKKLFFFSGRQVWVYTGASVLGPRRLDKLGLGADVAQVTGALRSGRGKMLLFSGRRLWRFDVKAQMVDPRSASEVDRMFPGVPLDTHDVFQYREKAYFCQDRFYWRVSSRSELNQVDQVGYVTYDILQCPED

## (GPhP)5GPK(Mca)GPPG~VVGEK(Dnp)GEN(GPhP)5-NH2 [fTHP, fluorogenic THP substrate with 7-methoxycoumarin and 2,4-dinitrophenyl groups conjugated to the ε-amino groups of Lys]
human-MMP-9
  Km: 8.1 µM
  kcat: 0.044 s⁻¹
  kcat/KM: 5,400 M^−1 s^−1
human-MMP-2
  Km: 4.4 µM
  kcat: 0.061 s⁻¹
  kcat/KM: 14,002 M^−1 s^−1

## O=S(=O)(CC1CS1)c1ccc(Oc2ccccc2)cc1 (stereo not shown) [SB-3CT]
MMP-2
  occupancy of MMP-2 at equilibrium: approximately 99%
[1]
  reduction of 5FAM6-THP fluorescence by gelatinase inhibitor: greatly attenuated; also recorded: greatly reduced fluorescence levels when 5FAM6-THP was incubated with HT-1080 cells by three-fold; also recorded: low levels of fluorescence observed in SB-3CT treated HT-1080 cells

## GVPLSLTMGC [MMP-7 substrate bearing a heterologous donor and acceptor pair of near infrared dyes on the N- and C- termini]
MMP-7; after digestion with MMP-7
  increase in fluorescence after digestion with MMP-7: ~7 fold
MMP-7; near infrared donor/acceptor dye pair on N- and C-termini
  level of quenching: 85%
